In patent publication US20100190807A1, “CDKI Pathway inhibitors and uses thereof to regulate expression to TAU protein” (Senex Biotechnology, Inc., priority 2008, published 2010):

Biological target: T1, NFκB (p50 and p65 subunits) (Homo sapiens, UniProt P19838+Q04206)
T1 construct: endogenous in cells; control or TNFα-treated
Assay: TransAM NFκB p65 and p50 transcription factor assay (oligonucleotide binding)
Format: cell-based
Text: The left set of bars represents cells treated with carrier control, the middle set represents cells treated with SNX2, and the right set represents cells treated with a known inhibitor of NFκB binding (TPCK).
We also tested if these compounds could act as the inhibitors of NFκB, by measuring cellular levels of p50 or p65 subunits binding oligonucleotides containing NFκB consensus binding site, using ACTIVE MOTIF TransAM™ NFκB p65 Chemi and NFκB p50 Chemi Transcription Factor Assay Kits.

T1 sequence (P19838 1-433 limits assumed): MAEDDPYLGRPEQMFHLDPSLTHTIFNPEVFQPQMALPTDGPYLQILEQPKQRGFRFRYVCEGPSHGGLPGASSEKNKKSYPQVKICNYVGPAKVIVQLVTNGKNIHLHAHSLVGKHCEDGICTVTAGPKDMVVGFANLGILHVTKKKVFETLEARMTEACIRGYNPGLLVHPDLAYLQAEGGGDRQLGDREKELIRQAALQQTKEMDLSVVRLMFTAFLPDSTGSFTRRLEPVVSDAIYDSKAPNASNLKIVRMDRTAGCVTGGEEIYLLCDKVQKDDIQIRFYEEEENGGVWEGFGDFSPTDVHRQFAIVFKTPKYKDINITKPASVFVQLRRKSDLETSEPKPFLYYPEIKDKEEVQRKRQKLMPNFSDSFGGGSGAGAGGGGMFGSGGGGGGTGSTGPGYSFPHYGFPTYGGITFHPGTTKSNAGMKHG
T1 sequence (Q04206 whole entry): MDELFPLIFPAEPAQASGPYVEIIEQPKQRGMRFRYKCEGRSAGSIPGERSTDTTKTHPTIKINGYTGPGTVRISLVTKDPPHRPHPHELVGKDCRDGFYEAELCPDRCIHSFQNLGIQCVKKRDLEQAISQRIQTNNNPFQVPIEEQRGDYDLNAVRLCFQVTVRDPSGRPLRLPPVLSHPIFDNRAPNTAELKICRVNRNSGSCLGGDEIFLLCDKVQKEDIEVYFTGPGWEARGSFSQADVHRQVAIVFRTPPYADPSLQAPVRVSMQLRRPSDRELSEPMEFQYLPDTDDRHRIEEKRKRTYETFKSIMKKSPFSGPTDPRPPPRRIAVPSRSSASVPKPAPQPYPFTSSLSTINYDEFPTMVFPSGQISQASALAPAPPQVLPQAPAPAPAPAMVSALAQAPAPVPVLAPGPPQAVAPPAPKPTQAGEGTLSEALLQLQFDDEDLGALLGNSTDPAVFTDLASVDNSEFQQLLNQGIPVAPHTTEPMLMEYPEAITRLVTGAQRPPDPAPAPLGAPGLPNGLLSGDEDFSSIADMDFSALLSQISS

Cc1ccc(S(=O)(=O)N[C@@H](Cc2ccccc2)C(=O)CCl)cc1 [TPCK] was tested, and the “TNFα-induced NFκB activity” value (TNFα-treated cells) was “completely blocks” and the “basal NFκB activity” value (control cells) was “completely blocks”.
